# How the values were obtained:
# Format in all cases: in vivo
# [1] = test system: Echinochloa oryzacola Vasing.; experiment: Test Example 1: herbicidal activity, application before weed generation in submerged conditions (symbol A); details: application herbicide amount 320 g/ha
# Method in brief: (§1)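 Paddy pre-emergence test. Formulated emulsion, water-diluted to a predetermined rate, is applied to floodwater on sowing day; rice transplanted at 2.5 leaves. Effect read at 3 weeks on a 0–5 herbicidal-ratio scale.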
# [2] = test system: Monochoria vaginalis; experiment: Test Example 1: herbicidal activity, application before weed generation in submerged conditions (symbol C); details: application herbicide amount 320 g/ha
# Method in brief: as §1
# [3] = test system: Echinochloa oryzacola Vasing.; experiment: Test Example 2: herbicidal activity, application during weed generation in submerged conditions (symbol A); details: Table 23; application herbicide amount 320 g/ha; grade 0-5 by criteria of Test Example 1
# Method in brief: (§2)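 Weeds emerging under flooded conditions were treated with compound formulated as an emulsion and diluted with water to the intended herbicide amount, poured onto the surface of 4 cm standing water. Seeds had been co-sown in alluvial soil; plants grew at 25° C. to 30° C. and were assessed after 3 weeks.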
# [4] = test system: Scirpus juncoides; experiment: Test Example 2: herbicidal activity, application during weed generation in submerged conditions (symbol B); details: Table 23; application herbicide amount 320 g/ha; grade 0-5 by criteria of Test Example 1
# Method in brief: as §2
# [5] = test system: Monochoria vaginalis; experiment: Test Example 2: herbicidal activity, application during weed generation in submerged conditions (symbol C); details: Table 23; application herbicide amount 320 g/ha; grade 0-5 by criteria of Test Example 1
# Method in brief: as §2
# [6] = test system: Digitaria ciliaris; experiment: Test Example 4: herbicidal effect by soil treatment (symbol F); details: for F (Digitaria ciliaris) herbicidal effect grade: application herbicide amount 320 g/ha; for F: Digitaria ciliaris, herbicidal effect grade: 320 g/ha
# Method in brief: (§3)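 Seeds were sown in sterilized diluvial soil, covered with about 1.5 cm of soil, and the soil surface was sprayed with a water-diluted emulsion of the compound at a predetermined rate. Plants grew in a greenhouse at 25° C. to 30° C.; effects were scored visually 3 weeks after application.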
# [7] = test system: Avena fatua; experiment: Test Example 4: herbicidal effect by soil treatment (symbol I); details: for I (Avena fatua) herbicidal effect grade: application herbicide amount 320 g/ha; for I: Avena fatua, herbicidal effect grade: 320 g/ha
# Method in brief: as §3
# [8] = test system: Alopecurus myosuroides; experiment: Test Example 4: herbicidal effect by soil treatment (symbol J); details: for J (Alopecurus myosuroides) herbicidal effect grade: application herbicide amount 320 g/ha; for J: Alopecurus myosuroides, herbicidal effect grade: 320 g/ha
# Method in brief: as §3
# [9] = test system: Abutilon theophrasti; experiment: Test Example 4: herbicidal effect by soil treatment (symbol M); details: for M (Abutilon theophrasti) herbicidal effect grade: application herbicide amount 320 g/ha; for M: Abutilon theophrasti, herbicidal effect grade: 320 g/ha
# Method in brief: as §3
# [10] = test system: Chenopodium album; experiment: Test Example 4: herbicidal effect by soil treatment (symbol O); details: for O (Chenopodium album) herbicidal effect grade: application herbicide amount 320 g/ha; for O: Chenopodium album, herbicidal effect grade: 320 g/ha
# Method in brief: as §3
# [11] = test system: rice; experiment: Test Example 4: effect on crop by soil treatment (symbol b); details: for b (directly sowed rice plant) effect on crop grade: application herbicide amount 320 g/ha; for b: directly sowed rice plant, effect grade on crop: 320 g/ha
# Method in brief: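 The test used sterilized diluvial soil. Seed was set down in spots and overlaid with about 1.5 cm of soil before growth in a greenhouse kept at 25° C. to 30° C.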
# [12] = test system: Echinochloa crus-galli var. crus-galli; experiment: Test Example 5: herbicidal effect by foliage application, plastic box (symbol H); details: 320 g/ha, 3 weeks after application
# Method in brief: (§4)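 Visual herbicidal score, taken three weeks post-application, of seedlings sprayed on the foliage with water-diluted emulsion at a predetermined amount; plants were 14 days old, greenhouse-raised at 25° C. to 30° C.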
# [13] = test system: Abutilon theophrasti; experiment: Test Example 5: herbicidal effect by foliage application, plastic box (symbol M); details: 320 g/ha, 3 weeks after application
# Method in brief: as §4
# [14] = test system: Amaranthus retroflexus; experiment: Test Example 5: herbicidal effect by foliage application, plastic box (symbol N); details: 320 g/ha, 3 weeks after application
# Method in brief: as §4
# [15] = test system: beet; experiment: Test Example 5: effect on crop by foliage application, plastic box (symbol f); details: 320 g/ha, 3 weeks after application
# Method in brief: (§5)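 Crop seed is sown alongside grass and broadleaf weed species in spots in sterilized diluvial soil, then covered to a depth of about 1.5 cm. Plants grow in a greenhouse kept at 25° C. to 30° C.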
# [16] = test system: rapeseed; experiment: Test Example 5: effect on crop by foliage application, plastic box (symbol g); details: 320 g/ha, 3 weeks after application
# Method in brief: as §5
Structure (SMILES),"Herbicidal effect grade, A: Echinochloa oryzacola Vasing. [1]","Herbicidal effect grade, C: Monochoria vaginalis [2]","Herbicidal effect grade, A: Echinochloa oryzacola Vasing. [3]","Herbicidal effect grade, B: Scirpus juncoides [4]","Herbicidal effect grade, C: Monochoria vaginalis [5]",F (Digitaria ciliaris) herbicidal effect grade [6],I (Avena fatua) herbicidal effect grade [7],J (Alopecurus myosuroides) herbicidal effect grade [8],M (Abutilon theophrasti) herbicidal effect grade [9],O (Chenopodium album) herbicidal effect grade [10],b (directly sowed rice plant) effect on crop grade [11],"H: Echinochloa crus-galli var. crus-galli, herbicidal effect grade [12]","M: Abutilon theophrasti, herbicidal effect grade [13]","N: Amaranthus retroflexus, herbicidal effect grade [14]","f: beet, effect on crop grade [15]","g: rapeseed, effect on crop grade [16]","F: Digitaria ciliaris, herbicidal effect grade [6]","I: Avena fatua, herbicidal effect grade [7]","J: Alopecurus myosuroides, herbicidal effect grade [8]","M: Abutilon theophrasti, herbicidal effect grade [9]",also measured
CON=C(C)CC1CC(OC(=O)C(C)Cl)=C(c2c(C)cc(C)cc2C)C1=O (stereo not shown) [1-042],0 (Herbicidal ratio of 5% or lower (almost no effect)),4 (Herbicidal ratio of 70% or higher and lower than 90%),5 (Herbicidal ratio of 90% or more (almost completely withered)),4 (Herbicidal ratio of 70% or higher and lower than 90%),3 (Herbicidal ratio of 40% or higher and lower than 70%),5 (Herbicidal ratio of 90% or more (almost completely withered)),3 (Herbicidal ratio of 40% or higher and lower than 70%),5 (Herbicidal ratio of 90% or more (almost completely withered)),5 (Herbicidal ratio of 90% or more (almost completely withered)),0 (Herbicidal ratio of 5% or lower (almost no effect)),5 (Herbicidal ratio of 90% or more (almost completely withered)),5 (Herbicidal ratio of 90% or more (almost completely withered)),3 (Herbicidal ratio of 40% or higher and lower than 70%),0 (Herbicidal ratio of 5% or lower (almost no effect)),1 (Herbicidal ratio of 5% or higher and lower than 20%),4 (Herbicidal ratio of 70% or higher and lower than 90%),–,–,–,–,–
CON=CCC1CC(O)=C(c2c(C)cc(C)cc2C)C1=O (stereo not shown) [1-050],4 (Herbicidal ratio of 70% or higher and lower than 90%),3 (Herbicidal ratio of 40% or higher and lower than 70%),3 (Herbicidal ratio of 40% or higher and lower than 70%),0 (Herbicidal ratio of 5% or lower (almost no effect)),0 (Herbicidal ratio of 5% or lower (almost no effect)),5 (Herbicidal ratio of 90% or more (almost completely withered)),0 (Herbicidal ratio of 5% or lower (almost no effect)),0 (Herbicidal ratio of 5% or lower (almost no effect)),1 (Herbicidal ratio of 5% or higher and lower than 20%),0 (Herbicidal ratio of 5% or lower (almost no effect)),5 (Herbicidal ratio of 90% or more (almost completely withered)),5 (Herbicidal ratio of 90% or more (almost completely withered)),3 (Herbicidal ratio of 40% or higher and lower than 70%),0 (Herbicidal ratio of 5% or lower (almost no effect)),0 (Herbicidal ratio of 5% or lower (almost no effect)),4 (Herbicidal ratio of 70% or higher and lower than 90%),–,–,–,–,–
CON=C(C)CC1CC(OC(=O)C2=CCCC2)=C(c2c(C)cc(C)cc2C)C1=O (stereo not shown) [1-088],5 (Herbicidal ratio of 90% or more (almost completely withered)),0 (Herbicidal ratio of 5% or lower (almost no effect)),5 (Herbicidal ratio of 90% or more (almost completely withered)),5 (Herbicidal ratio of 90% or more (almost completely withered)),3 (Herbicidal ratio of 40% or higher and lower than 70%),–,–,–,–,–,–,–,–,–,–,–,5 (Herbicidal ratio of 90% or more (almost completely withered)),3 (Herbicidal ratio of 40% or higher and lower than 70%),5 (Herbicidal ratio of 90% or more (almost completely withered)),0 (Herbicidal ratio of 5% or lower (almost no effect)),"O: Chenopodium album, herbicidal effect grade [10]: 0 (Herbicidal ratio of 5% or lower (almost no effect)); b: directly sowed rice plant, effect grade on crop [11]: 5 (Herbicidal ratio of 90% or more (almost completely withered)); H: Echinochloa crus-galli var. crus-galli, herbicidal effect (criteria 0-5) [12]: 5 (Herbicidal ratio of 90% or more (almost completely withered)); M: Abutilon theophrasti, herbicidal effect (criteria 0-5) [13]: 4 (Herbicidal ratio of 70% or higher and lower than 90%); N: Amaranthus retroflexus, herbicidal effect (criteria 0-5) [14]: 1 (Herbicidal ratio of 5% or higher and lower than 20%); f: beet, effect on crop (criteria 0-5) [15]: 0 (Herbicidal ratio of 5% or lower (almost no effect)); g: rapeseed, effect on crop (criteria 0-5) [16]: 4 (Herbicidal ratio of 70% or higher and lower than 90%)"
CC(CC1CC(O)=C(c2c(C)cc(C)cc2C)C1=O)=NOCC[Si](C)(C)C (stereo not shown) [1-055],5 (Herbicidal ratio of 90% or more (almost completely withered)),0 (Herbicidal ratio of 5% or lower (almost no effect)),2 (Herbicidal ratio of 20% or higher and lower than 40%),0 (Herbicidal ratio of 5% or lower (almost no effect)),0 (Herbicidal ratio of 5% or lower (almost no effect)),5 (Herbicidal ratio of 90% or more (almost completely withered)),0 (Herbicidal ratio of 5% or lower (almost no effect)),1 (Herbicidal ratio of 5% or higher and lower than 20%),0 (Herbicidal ratio of 5% or lower (almost no effect)),0 (Herbicidal ratio of 5% or lower (almost no effect)),5 (Herbicidal ratio of 90% or more (almost completely withered)),4 (Herbicidal ratio of 70% or higher and lower than 90%),0 (Herbicidal ratio of 5% or lower (almost no effect)),0 (Herbicidal ratio of 5% or lower (almost no effect)),0 (Herbicidal ratio of 5% or lower (almost no effect)),3 (Herbicidal ratio of 40% or higher and lower than 70%),–,–,–,–,–
C=CC(CC1CC(O)=C(c2c(C)cc(C)cc2C)C1=O)=NOC (stereo not shown) [1-086],5 (Herbicidal ratio of 90% or more (almost completely withered)),0 (Herbicidal ratio of 5% or lower (almost no effect)),5 (Herbicidal ratio of 90% or more (almost completely withered)),0 (Herbicidal ratio of 5% or lower (almost no effect)),–,–,–,–,–,–,–,–,–,–,–,–,2 (Herbicidal ratio of 20% or higher and lower than 40%),3 (Herbicidal ratio of 40% or higher and lower than 70%),3 (Herbicidal ratio of 40% or higher and lower than 70%),0 (Herbicidal ratio of 5% or lower (almost no effect)),"O: Chenopodium album, herbicidal effect grade [10]: 0 (Herbicidal ratio of 5% or lower (almost no effect)); b: directly sowed rice plant, effect grade on crop [11]: 5 (Herbicidal ratio of 90% or more (almost completely withered)); H: Echinochloa crus-galli var. crus-galli, herbicidal effect (criteria 0-5) [12]: 5 (Herbicidal ratio of 90% or more (almost completely withered)); M: Abutilon theophrasti, herbicidal effect (criteria 0-5) [13]: 0 (Herbicidal ratio of 5% or lower (almost no effect)); N: Amaranthus retroflexus, herbicidal effect (criteria 0-5) [14]: 0 (Herbicidal ratio of 5% or lower (almost no effect)); f: beet, effect on crop (criteria 0-5) [15]: 0 (Herbicidal ratio of 5% or lower (almost no effect)); g: rapeseed, effect on crop (criteria 0-5) [16]: 3 (Herbicidal ratio of 40% or higher and lower than 70%)"

# Source: patent US11000033B2, “Ketone or oxime compound, and herbicide” (NISSAN CHEMICAL CORPORATION, priority 2014, dated 2021)
